Source: paper PMC6435658, “Investigation into the Molecular Mechanisms underlying the Anti-proliferative and Anti-tumorigenesis activities of Diosmetin against HCT-116 Human Colorectal Cancer” (Scientific Reports, 2019)
Values after ≈ are worked out from the molar mass of the structure shown.

Tests used:
[1] = test system: HCT-116 cells; assay: MTT cytotoxicity assay, HCT-116; type: cell-based, human; conditions: for IC50: Homo sapiens, MTT
Protocol: (§1) Cytotoxicity property of Dis against HCT-116 and CCD-841 cells were measured by MTT assay as described by Mossman[77]. Briefly, cells were treated with different concentration of Dis and 5-Fu (positive control) with serial dilution factor of 2 for 8 concentrations in 96 well-plate for different time points (24 h, 48 h and 72 h). Subsequently at the end of each time point 20 µl of MTT (5 mg/ml, Affymetrix,Cleveland, OH, USA) were added to each well followed by 4 h incubation. The solutions were aspirated after 4 h and 100 µl of DMSO were added to each well. Absorbance for each well was read at 570 nm as measured by using microplate reader (Tecan Infinite multimode, Männedorf, Switzerland). Cytotoxicity (cell death) was measured by using the following formula: Celldeath(%)=sampleOD−controlOD/controlOD100
(§2) This assay was performed in triplicates in three independent experiments. The cytotoxicity property of Dis was presented as IC50 value.

[2] = test system: CCD-841 cells; assay: MTT cytotoxicity assay, CCD-841 normal colon cells; type: cell-based; conditions: Homo sapiens, CCD-841 non cancerous cells
Protocol: as §1, §2

[3] = test system: HCT-116 cells; assay: Annexin-V-FITC apoptosis assay; type: cell-based, human
Protocol: Inductions of early and late stages of apoptosis by Dis were investigated using Annexin-V-FITC assay according to the manufacturer’s instructions (BD Biosciences, San Jose, CA, USA). Briefly, 10^6 HCT-116 cells were seeded in 25 cm^2 flask followed by treatment with Dis for 24 h, 48 h and 72 h. Treated cells were harvested and washed twice with cold PBS and suspended in binding buffer followed by transferred of 10^5 cells to the 6 ml polystyrene round-bottom FACS tubes. Cells were incubated with 5 µl of PI and 5 µl of Annexin-V-FITC and introduced to the FACSCanto™II instrument (BD, San Jose, CA, USA).

[4] = test system: HCT-116 cells; assay: Human apoptosis protein array (proteome profiler); type: cell-based; conditions: vs control
Protocol: Apoptosis protein expression profiling was performed using human apoptosis array (R&D Systems, Minneapolis, MN, USA) according to the manufacturer’s protocol. In brief, 2 × 10^6 HCT-116 cells were seeded and treated with Dis in 75 cm^2 flask and incubated for 48 h. Cells were harvested and lysed via lysis buffer reagent and was quantified using Pierce BCA protein assay kit (Thermo Scientific™, Pittsburgh, PA, USA). The membrane provided was blocked in blocking solution reagent and treated overnight with cell lysates protein. The membrane was washed and subsequently incubated with detection antibody cocktail and streptavidin horseradish peroxidase-conjugated. Chemiluminescent reagents were added to the membrane and then exposed to X-ray film to detect the protein expression levels in treated cells as compared to untreated cells. Images were quantified via ImageJ software (NIH, USA). The list of investigated proteins is provided as supplementary data (Table S2).

[5] = test system: caspase 8; assay: Caspase-Glo 8 bioluminescent assay; type: cell-based, human; conditions: HCT-116, 24 h, 48 h, 72 h, time dependent
Protocol: To assess the effect of Dis on caspase cascades in treated cells, activities of caspase-Glo 3/7, caspase-Glo 8 and caspase-Glo 9 assays (Promega, Madison, WI, USA) were performed. Briefly, HCT-116 cells with the density of 10^4 cells/well were seeded in 96 well-plates. Cells were treated with Dis for 24 h, 48 h and 72 h. This assay was performed in triplicates for each time point. A total of 6 wells were preserved for samples without cells but with media and reagents as the blank samples, and for the untreated cells as negative control. At the end of incubation time, 100 µl caspase-glo mixture were added to each well and incubated for 1 h in the dark according to the manufacturer’s instructions. Optical density was measured via multimode microplate reader (Tecan Infinite, Männedorf, Switzerland).

[6] = test system: NF-κB; assay: Translocation of NF-κB induced by TNF-α; type: cell-based, human; conditions: HCT-116 stimulated with TNF-α, vs untreated group
Protocol: Confocal microscope was used to detect the suppressive effect of Dis on translocation of NF-κB from cytoplasm to nucleus induced by TNF-α (Santa Cruz, CA, USA) using cellomics nucleus factor-κB (NF-κB) activation kit (Thermo Scientific™, Pittsburgh, PA, USA). HCT-116 cells were seeded and treated with Dis at different time points in 24 well-plate covered with cover slide. An amount of 150 ng/ml of TNF-α was used as a stimulator for 24 h. Cells were then fixed and stained according to the manufacturer’s instructions. Translocation of NF-κB was investigated via confocal Leica TCS SP5 II microscope (Leica Microsystems, Mannheim, Germany) and intensity of NF-κB was measured by using LAS X software.

[7] = test system: HCC; set-up: method as in PMID 19424633, PMID 27176768, PMID 26847170, PMID 20183323; conditions: 24 h treatment, ref [10],[13],[15],[47]; cited from earlier work
[8] = test system: MCF-10; set-up: method as in PMID 19424633, PMID 27176768, PMID 26847170, PMID 20183323; conditions: MCF-10 non-cancerous cells, 24 h; ref [10],[13],[15],[47]; cited from earlier work
[9] = test system: SK-Hep-1; set-up: method as in PMID 19424633, PMID 27176768, PMID 26847170, PMID 20183323; conditions: SK-Hep-1, 24 h; ref [10],[13],[15],[47]; cited from earlier work

- cleavage of caspase 8 [5]: significantly increased
Structure (SMILES): COc1ccc(-c2cc(=O)c3c(O)cc(O)cc3o2)cc1O [Dis, Diosmetin]
- IC50 ([1]; HCT-116, 24 h): 5.56 ± 0.48 µg/mL (≈ 18.5 µM)
- IC50 ([1]; HCT-116, 48 h): 3.58 ± 0.58 µg/mL (≈ 11.9 µM)
- IC50 ([1]; HCT-116, 72 h): 3.41 ± 0.64 µg/mL (≈ 11.4 µM)
- Selectivity Index (SI) ([1]; IC50 CCD-841 / IC50 HCT-116, 24 h): 42.53
- Selectivity Index (SI) ([1]; IC50 CCD-841 / IC50 HCT-116, 48 h): 14.51
- Selectivity Index (SI) ([1]; IC50 CCD-841 / IC50 HCT-116, 72 h): 11.88
- IC50 ([2]; 24 h): 236 ± 9.99 µg/mL (≈ 788 µM)
- IC50 ([2]; 48 h): 51.95 ± 0.11 µg/mL (≈ 173 µM)
- IC50 ([2]; 72 h): 40.5 ± 9.99 µg/mL (≈ 135 µM)
- Late apoptosis ([3]; HCT-116, 24 h): 18 ± 3.6%
- Late apoptosis ([3]; HCT-116, 48 h): 26.3 ± 3.6%
- Late apoptosis ([3]; HCT-116, 72 h): 53.15 ± 4.35%
- population of cells in early apoptosis ([3]; HCT-116, 72 h of treatment): 7.7 ± 0%
- Protein expression of caspase 3 cleavage, fold change ([4]; HCT-116, 3.58 µg/ml Dis, 48 h): 2.61
- Protein expression of pro-caspase 3, fold change ([4]; HCT-116, 3.58 µg/ml Dis, 48 h): 0.75
- Hsp27 expression, gene and protein levels ([4]; HCT-116, 48 h): significantly decreased
- expression of FADD ([4]; HCT-116, 48 h): significantly increased
- protein expression level of Bax ([4]; HCT-116, 48 h): accelerated
- protein expression level of Cytochrome C ([4]; HCT-116, 48 h): accelerated
- protein expression of Survivin ([4]; HCT-116, 48 h): significantly decreased
- translocation of NF-ƙB [6]: significantly reduced
- IC50 [7]: 50 µg/mL (≈ 167 µM)
- IC50 [8]: 30 µg/mL (≈ 99.9 µM)
- IC50 [9]: 100 µg/mL (≈ 333 µM)
